Test results reported in patent US5534496A, “Methods and compositions to enhance epithelial drug transport” (University of Southern California, priority 1994, dated 1996).
Entries after “also recorded” stand apart in the source; their conditions may differ. Where a SMILES comes first, the peptide text is derived from it. [ ]: non-standard residue; d: D form. The star is where a group is joined. X1 = O=C(OCc1ccc(/N=N/c2ccccc2)cc1)*

Experiments:
[1] = Degradation in intestinal homogenates; assay type: in vitro ADME; conditions: 0.5 mM; various intestinal homogenates
Source text: Key: .quadrature., Pz-Pro-Leu; , Pro-Leu.

[2] = tested on: Caco2 monolayers; assay: Penetration of peptides across Caco2 monolayers; conditions: 5 mM
[3] = tested on: human colon carcinoma cell monolayer (Caco2); assay: Transepithelial electrical resistance (TEER) of Caco2 monolayers; conditions: 3 mM; prolonged exposure
Procedure: A 500 ohms·cm^2 transepithelial electrical resistance, TEER, was used for the study.
The experiment was initiated by replacing the mucosal solution with sample solution. The viability of the cell monolayers was measured by TEER before and after exposure to the peptide solution. Five paracellular markers with different molecular radii were used to determine the extent of enhancement.

[4] = tested on: isolated segments of duodenum, jejunum, ileum, ascending colon, descending colon, and rectum; assay: Penetration across isolated intestinal segments in modified Ussing chamber; assay type: in vitro ADME, albino rabbit; conditions: for penetration relative to atenolol, timolol and propranolol: all intestinal segments, all at 3 mM; for penetration: descending colon
Procedure: The penetration of Pz-peptide across the isolated segments of duodenum, jejunum, ileum, ascending colon, descending colon, and rectum of the albino rabbit was evaluated in the modified Ussing chamber. Solution of Pz-peptide at concentrations of 1, 3, and 5 mM were prepared in 5% hydroxypropyl β-cyclodextrin, which was found not to affect either collagenase activity or integrity of the intestinal segments. Periodically up until 240 min, a 50 μl aliquot was collected from the serosal side and injected directly into the HPLC. The apparent permeability coefficient Papp, was calculated using methods well known to one skilled in the art. Papp is defined as the flux of any solute transported across a given membrane per unit area normalized to the concentration applied (see pages 72-73 from the text by W. D. Stein entitled, "Transport and Diffusion A Cross Cell Membranes").

[5] = from Betageri and Rogers (1987); cited from earlier work
[6] = tested on: collagenase-like activity; assay: Collagenase activity (Pz-peptide hydrolysis) in homogenates and subcellular fractions of gastrointestinal mucosa; assay type: in vitro ADME; conditions: albino rabbit intestinal segments
Procedure: Collagenase activity in homogenates and subcellular fractions of the gastrointestinal mucosa of the albino rabbit was determined by incubating 30 μl a homogenate or subcellular fraction with 20 μl of a Pz-peptide solution in 11% ethanol for up to 60 min. The subcellular fractions were the cytosolic and membrane fractions, and the concentrations of Pz-peptide ranged from 0.1 to 2 mM. The reaction was stopped by adding 225 μl of acetonitrile to the incubation mixture. Following centrifugation to remove precipitated proteins, an aliquot of the supernatant was injected into the HPLC for assay of the intact peptide and its hydrolytic product, Pz-L-Pro-L-Leu. Collagenase activity was determined from the initial slope of a plot of product concentration vs. time.
Using the procedure described in section A above, collagenase actively for the Pz-peptide was found in both tissue homogenate and subcellular fractions of the intestinal segments of the albino rabbit. Referring to FIG. 1, collagenase-like activity was highest in the descending colon and lowest in the jejunum, there being a 7-fold difference in activity at both high and low substrate concentration. […] About 60% of collagenase-like activity was in the cytosol.

[7] = tested on: bacterial collagenase; assay: Hydrolysis by bacterial collagenase; conditions: 0.04 mg/ml bacterial collagenase

Question: With `CC(C)C[C@H](NC(=O)[C@@H]1CCCN1)C(=O)O` [Pro-Leu, reference compound] (H-Pro-Leu-OH) as the compound, how does the enzymatic degradation [1] read?
Answer: Its enzymatic degradation is “degraded to various extent”.

Question: What about the “penetration relative to Pz-Pro-Leu” value [2] of the same compound?
Answer: Its value is “about 10 times lower”.

Question: For `C=C1[C@@H](C)[C@H]2[C@H](Cc3ccccc3)NC(=O)[C@]23OC(=O)/C=C/[C@H](O)CCC[C@@H](C)C/C=C/[C@H]3[C@@H]1O` [cytochalasin B], which “recovery of TEER” value [3] is on record?
Answer: Its value is “only partial recovery”.

Question: With `CC(C)C[C@H](NC(=O)[C@@H]1CCCN1C(=O)OCc1ccc(/N=N/c2ccccc2)cc1)C(=O)O` [Pz-Pro-Leu, Pz-L-Pro-L-Leu] as the compound, how does the “concentration dependence of penetration” value ([4]; all intestinal segments studied) read?
Answer: Its value is “independent of concentrations”.

Question: And the “penetration relative to atenolol, timolol and propranolol” value [4]?
Answer: The value was “penetrated equally well or even better”.

Question: And the penetration [4]?
Answer: Its penetration is “penetrated very well”.

Question: And the enzymatic degradation [1]?
Answer: Its enzymatic degradation is “resistant to enzymatic degradation”.

Question: Which “distribution coefficient (DC)” value [5] does the source give for `CC(C)(C)NC[C@H](O)COc1nsnc1N1CCOCC1` [timolol] here?
Answer: Its value is 82.

Question: For `CC(C)C[C@H](NC(=O)[C@@H]1CCCN1C(=O)OCc1ccc(/N=N/c2ccccc2)cc1)C(=O)NCC(=O)N1CCC[C@H]1C(=O)N[C@H](CCCNC(=N)N)C(=O)O` [Pz-peptide, Pz-Pro-Leu-Gly-Pro-D-Arg] (X1-PLGP[dR]-OH), which “rank order of collagenase-like activity (Pz-peptide hydrolysis) in intestinal segments” value [6] is on record?
Answer: Its value is “descending colon>ascending colon>rectum>ileum>duodenum>jejunum”.

Question: And the “concentration dependence of penetration” value ([4]; 1-5 mM, lower G.I. regions)?
Answer: The value was “increased with increasing peptide concentrations”.

Question: What about the “concentration dependence of transport” value ([4]; 1-5 mM, upper G.I. segments) of the same compound?
Answer: The value was “independent of concentrations”.

Question: And the “permeability, lower intestine versus upper intestine” value ([4]; albino rabbit intestinal segments)?
Answer: The value was “lower intestine was more permeable”.

Question: What about the “penetration relative to atenolol, timolol and propranolol” value [4] of the same compound?
Answer: Its value is “penetrated equally well or even better”.

Question: And the penetration [4]?
Answer: Its penetration is “penetrated very well; also recorded: penetrated the second best”.

Question: What about the “rank order of permeability coefficient” value ([4]; lower intestine) of the same compound?
Answer: The value was “rectum>descending colon>ascending colon”.

Question: And the “permeability of duodenum, jejunum and ileum” value ([4]; upper intestine)?
Answer: The value was “equally permeable”.

Question: For `CC(C)NCC(O)COc1cccc2ccccc12` (stereo not drawn) [propranolol], which “distribution coefficient (DC)” value [5] is on record?
Answer: The value was 1640.

Question: With `CC(C)C[C@H](NC(=O)[C@@H]1CCCN1)C(=O)N[C@@H](CCC(=O)O)C(=O)N1CCC[C@H]1C(=O)N[C@H](CCCNC(=N)N)C(=O)O` [PLEP^d R, Pro-Leu-Glu-Pro-^d Arg] (H-PLEP[dR]-OH) as the compound, how does the “susceptibility to collagenase action” value [7] read?
Answer: Its value is “not susceptible to collagenase action”.
